Experimental data taken from patent US9839701B2, “Aromatic amino acid derivative and positron emission topography (PET) probe using the same” (OSAKA UNIVERSITY, priority 2013, dated 2017).
pIC50: −log10 of the molar value.

How the values were obtained:
human LAT1 [1] = biological target: T1, human LAT1 (Homo sapiens, UniProt Q01650); assay: Inhibition of amino acid uptake in human LAT1 stably expressing cell line; format: cell-based
T1 construct: expressed in transfected cells
From the text: A human LAT1 expression vector or a human LAT2 expression vector was transfected using Lipofectamine (registered trademark) 2000 (Invitrogen) into a human embryonic kidney cell line HEK293. G418-resistant HEK293 clones were selected, and among them, a clone showing human LAT1-specific amino acid uptake and a clone showing human LAT2-specific amino acid uptake were selected and established as a human LAT1 stably expressing cell line and a human LAT2 stably expressing cell line, respectively (Khunweeraphong et al. J Pharmacol Sci. 2012 Aug. 18; 119(4): 368-80. Epub 2012 Jul. 31).
The human LAT1 stably expressing cell line and the human LAT2 stably expressing cell line were seeded at 1.2×10^5 cells/well on separate collagen-coated 24-well plates, and after 48 hours, the cells were washed 3 times with an uptake buffer (Na^2+-free Hank's balanced salt solution (HBSS), pH 7.4) prewarmed at 37° C. Compound 10a, compound 10b or a positive control FAMT (fluoro-α-methyltyrosine) was added at 100 μM, and incubation was performed at 37° C. for 3 minutes. Cells not treated with any of these compounds were used as a negative control. After the incubation, 1 μM of [^14C]L-leucine or [^14C]alanine was added to the wells, [^14C]L-leucine or [^14C]alanine uptake was allowed to proceed for 1 minute, and the cells were washed 3 times with an ice-cold uptake buffer. Subsequently, 500 μL of 0.1 M NaOH was added to each well for cell lysis, 20 μL of the lysate was used for the measurement of the protein concentration, and the remaining lysate was used for the measurement of the intracellular radioactivity. The measured radioactivity was normalized to the protein concentration, and on the assumption that the amino acid uptake activity in the negative control was 100%, the percentage (%) of inhibition of amino acid uptake in the presence of each compound was calculated.
Using the same cell lines as described in Example 2, the compound of Example 1 was examined for the inhibitory effect on leucine or alanine uptake in the human LAT1 stably expressing cell line and the human LAT2 stably expressing cell line in the same manner as in Example 2. FAMT was used as the positive control. The compound of Example 1 or FAMT was added at 100 μM. Cells not treated with either of these compounds were used as a negative control. On the assumption that the amino acid uptake activity in the negative control (control) was 100%, the percentage (%) of inhibition of amino acid uptake in the presence of FAMT or the compound of Example 1 was calculated. In addition, the cancer cell selectivity was calculated as the ratio of the amino acid uptake activity in the human LAT2 stably expressing cell line relative to that in the human LAT1 stably expressing cell line.
In another experiment, the cells were treated with the compound of Example 1 at eight different concentrations (0.1, 1, 3, 10, 30, 100, 300 and 1000 μM), and the concentration causing 50% inhibition of amino acid uptake was calculated as the IC50 value.
A human LAT1 stably expressing cell line and a human LAT2 stably expressing cell line, each of which was the same as described in Example 2, were seeded at 1.2×10^5 cells/well, and after 48 hours, the cells were washed 3 times with an uptake buffer (Na^2+-free Hank's balanced salt solution (HBSS), pH 7.4) prewarmed at 37° C. The test compounds, L-tyrosine or the positive control FAMT (fluoro-α-methyltyrosine) was added at 30 μM, and incubation was performed at 37° C. for 3 minutes. Cells not treated with any of these compounds were used as a negative control. After the incubation, 1 μM of [^14C]L-leucine or [^14C]alanine was added to the wells, [^14C]L-leucine or [^14C]alanine uptake was allowed to proceed for 1 minute, and the cells were washed 3 times with an ice-cold uptake buffer. […]

human LAT1 [2] = biological target: T1, human LAT1; assay: Promoting effect on amino acid efflux from human LAT1 stably expressing cell line; format: cell-based
Description: In the same manner as in Example 3, the human LAT1 stably expressing cell line and the human LAT2 stably expressing cell line were seeded on separate collagen-coated 24-well plates, and after 48 hours, the cells were washed with an uptake buffer prewarmed at 37° C. An uptake buffer supplemented with 1 μM of [^14C]L-leucine or [^14C]L-alanine was added to each well, and [^14C]L-leucine or [^14C]L-alanine uptake by the cells was allowed to proceed at 37° C. for 10 minutes. […] The radioactivity in each supernatant was measured as the radioactivity of the amino acid released from the cells. Subsequently, 500 μL of 0.1 M NaOH was added to each well for cell lysis, 20 μL of the lysate was used for the measurement of the protein concentration, and the remaining lysate was used for the measurement of the residual radioactivity in the cells. The sum of the residual radioactivity and the released radioactivity in each experiment was checked to confirm that there was no great difference in the total radioactivity incorporated into the cells at the preloading among the experiments. […]
Based on the measured values of amino acid efflux at the indicated concentrations of each compound, the Km value for amino acid efflux from the human LAT1 stably expressing cell line and the Km value for amino acid efflux from the human LAT2 stably expressing cell line were calculated and shown in Table 5. […]

T1 sequence (Q01650 whole entry): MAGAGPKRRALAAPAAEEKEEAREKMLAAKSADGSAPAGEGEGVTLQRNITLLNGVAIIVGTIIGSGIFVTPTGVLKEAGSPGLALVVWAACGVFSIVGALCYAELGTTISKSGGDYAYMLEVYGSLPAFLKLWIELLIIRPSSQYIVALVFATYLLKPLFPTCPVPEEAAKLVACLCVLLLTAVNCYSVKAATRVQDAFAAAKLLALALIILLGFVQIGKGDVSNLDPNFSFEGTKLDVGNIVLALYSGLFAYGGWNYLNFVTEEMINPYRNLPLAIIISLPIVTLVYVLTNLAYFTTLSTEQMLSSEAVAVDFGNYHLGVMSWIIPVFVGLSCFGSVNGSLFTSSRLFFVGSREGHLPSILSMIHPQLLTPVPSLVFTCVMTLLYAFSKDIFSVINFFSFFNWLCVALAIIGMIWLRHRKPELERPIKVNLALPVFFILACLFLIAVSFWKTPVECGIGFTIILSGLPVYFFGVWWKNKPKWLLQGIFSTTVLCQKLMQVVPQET
T1 sequence (P08195 102-630 partner): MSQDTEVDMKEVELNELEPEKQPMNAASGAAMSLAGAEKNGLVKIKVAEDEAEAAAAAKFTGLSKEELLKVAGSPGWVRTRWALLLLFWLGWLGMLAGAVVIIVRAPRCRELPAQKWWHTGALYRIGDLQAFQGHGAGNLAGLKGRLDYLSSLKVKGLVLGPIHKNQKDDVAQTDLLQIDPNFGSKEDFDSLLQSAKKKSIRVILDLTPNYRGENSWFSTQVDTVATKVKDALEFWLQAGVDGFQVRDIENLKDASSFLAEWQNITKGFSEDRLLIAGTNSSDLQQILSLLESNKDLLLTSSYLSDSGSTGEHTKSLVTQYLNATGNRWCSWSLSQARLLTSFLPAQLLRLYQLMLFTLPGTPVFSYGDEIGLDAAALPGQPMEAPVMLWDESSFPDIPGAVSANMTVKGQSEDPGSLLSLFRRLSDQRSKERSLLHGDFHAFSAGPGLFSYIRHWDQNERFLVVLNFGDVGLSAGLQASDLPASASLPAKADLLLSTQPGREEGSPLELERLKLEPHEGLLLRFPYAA

`NC(Cc1cc(OCCF)ccc1I)C(=O)O` (centres unmarked) [Example 1, 2-amino-3-(5-(2-fluoroethoxy)-2-iodophenyl)propanoic acid] was tested, and the inhibition at 100 µM (human LAT1 [1]; HEK293, compound at 100 μM, human LAT1 stably expressing HEK293 cell line, 1 μM [14C]L-leucine or [14C]alanine, 1 min uptake, read-out: Percentage of inhibition of LAT1-mediated amino acid uptake) was 92.5%, the pIC50 (human LAT1 [1]; eight concentrations 0.1-1000 μM) was 5.04 and the “Selectivity for LAT1 over LAT2” value (human LAT1 [1]; from IC50 values) was at least 9 times. The “Promoting effect on amino acid efflux via human LAT1, compared with FAMT” value (human LAT1 [2]; 10 μM, 1 min, FIG. 2) was “twice or more higher than that of FAMT” and the “Affinity for human LAT1 relative to FAMT” value (human LAT1 [2]; from Km values) was at least 10 times.
